# Key:
# Assay in all cases: relative viability (nuclei count vs DMSO), 5 days (fraction); higher = more cells survive
# [1] = compound: CS(=O)(=O)N1CCN(Cc2cc3nc(-c4cccc5[nH]ncc45)nc(N4CCOCC4)c3s2)CC1 [Pictilisib]
# In short: (§1)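 Viability here means nuclei in treated wells divided by nuclei in vehicle wells, reported as the median across plates. Only plates with control CV below 25% and at least one doubling passed. Lung cancer cell lines in 1536-well plates were exposed to five √10-spaced library-drug doses for 5 days and counted from 4× Hoechst images in MetaXpress.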
# [2] = compound: NC1(c2ccc(-c3nc4ccn5c(=O)[nH]nc5c4cc3-c3ccccc3)cc2)CCC1 [MK-2206]
# In short: as §1
# [3] = compound: NC1(c2ccc(-c3nc4ccn5c(=O)[nH]nc5c4cc3-c3ccccc3)cc2)CCC1 [MK-2206] + CS(=O)(=O)N1CCN(Cc2cc3nc(-c4cccc5[nH]ncc45)nc(N4CCOCC4)c3s2)CC1 [Pictilisib] (partner 1 µM)
# In short: (§2)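 Medians of duplicate plates are given as relative viability. That measure is the nuclei count in treated wells divided by the count in vehicle wells. Counts were taken on 4× images of lung cancer cell lines in 1536-well plates, 5 days after pin-tool dosing the day after seeding with one drug alone or a fixed anchor-drug dose plus five library-drug doses (not always all listed) in √10 steps.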
# [4] = compound: NC1(c2ccc(-c3nc4ccn5c(=O)[nH]nc5c4cc3-c3ccccc3)cc2)CCC1 [MK-2206] + Cc1cc(Nc2cc(N3CCN(C)CC3)nc(Sc3ccc(NC(=O)C4CC4)cc3)n2)n[nH]1 [Tozasertib] (partner 0.1 µM)
# In short: as §2
cell line,measurement,setting,value
UMC-11,relative viability,[1]; 0.02 µM,0.989
same,relative viability,[1]; 0.06325 µM,1.14
same,relative viability,[1]; 0.6325 µM,1.07
same,relative viability,"[1]; 1 µM, anchor plate",0.846
same,relative viability,[1]; 2 µM,0.937
same,relative viability,[2]; 0.01 µM,0.94
same,relative viability,[2]; 0.03162 µM,1.02
same,relative viability,[2]; 0.3162 µM,1.07
same,relative viability,[2]; 1 µM,0.937
same,relative viability,[3]; first compound 0.01 µM,0.762
same,relative viability,[3]; first compound 0.03162 µM,0.821
same,relative viability,[3]; first compound 0.3162 µM,0.837
same,relative viability,[3]; first compound 1 µM,0.616
same,relative viability,[4]; first compound 0.01 µM,0.194
same,relative viability,[4]; first compound 0.03162 µM,0.2
same,relative viability,[4]; first compound 0.3162 µM,0.214
same,relative viability,[4]; first compound 1 µM,0.192

# — the supplement of paper PMC10307832
